# Earlier results in publication PMC3975045 (ACS medicinal chemistry letters, 2013).
# System: OX1 and OX2
substance,measurement,value
"[Ala^11,D-Leu^15]orexin B",selectivity for OX2 over OX1,400 fold
